Data reported in ChEMBL document CHEMBL1201862, “PubChem BioAssay data set” (2004).
Activity calls are given as the source filed them.

How the values were obtained:
[1] = NIH-3T3 fibroblast cytotoxicity, dose response, cytotoxicity control, cell-based, fluorescence, Alamar Blue, secondary assay (AID 2327); assay type: functional;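 further: NIH-3T3 mouse fibroblasts cultured with fluconazole at 8 µg/mL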
[2] = test system: Streptococcus sp. 'group A'; assay: growth inhibition of control SK(-) GAS strain, dose response, counter-screen for streptokinase expression inhibitor project, luminescence, kanamycin, BacTiterGlo, confirmation (AID 1900); assay type: functional, organism-based
[3] = C. albicans growth with fluconazole, confirmation, fluorescence, retest (AID 2467); assay type: functional, cell-based
[4] = target: T1, Serine/threonine-protein phosphatase (Candida dubliniensis (strain CD36 / CBS 7987 / NCPF 3949 / NRRLY-17841) (Yeast), UniProt B9W6M3); assay: calcineurin pathway inhibitors in yeast reporter, dose response, S. cerevisiae, CDRE-lacZ, luminescence, secondary (AID 2388); assay type: functional, cell-based;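 further: yeast reporter cells carrying a calcineurin-responsive lacZ construct stimulated with calcium chloride; luminescent beta-galactosidase reporter signal in whole cells rather than isolated phosphatase activity; potency for inhibition where a drop in reporter signal means calcineurin blockade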
T1 sequence (B9W6M3 whole entry): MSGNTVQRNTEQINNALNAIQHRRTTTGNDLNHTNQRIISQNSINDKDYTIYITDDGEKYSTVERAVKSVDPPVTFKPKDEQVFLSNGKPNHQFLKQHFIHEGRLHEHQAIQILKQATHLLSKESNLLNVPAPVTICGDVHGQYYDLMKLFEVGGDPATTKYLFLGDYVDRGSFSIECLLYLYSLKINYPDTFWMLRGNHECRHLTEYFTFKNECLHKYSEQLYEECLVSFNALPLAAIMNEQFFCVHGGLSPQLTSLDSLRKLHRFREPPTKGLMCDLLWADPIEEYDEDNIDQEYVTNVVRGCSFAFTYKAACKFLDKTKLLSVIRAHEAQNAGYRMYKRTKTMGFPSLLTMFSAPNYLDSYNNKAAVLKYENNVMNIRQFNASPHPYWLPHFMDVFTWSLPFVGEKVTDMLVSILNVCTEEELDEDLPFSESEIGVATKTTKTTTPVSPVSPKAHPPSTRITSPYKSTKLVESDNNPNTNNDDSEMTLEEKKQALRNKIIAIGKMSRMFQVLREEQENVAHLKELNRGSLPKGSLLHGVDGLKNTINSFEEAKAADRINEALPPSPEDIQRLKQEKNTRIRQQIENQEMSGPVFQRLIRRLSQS

[5] = test system: Streptococcus; assay: Group A Streptococcus viability loss, dose response, counter-screen for streptokinase expression inhibitor project, luminescence, BacTiterGlo (AID 1915); assay type: functional, organism-based;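 further: potency for reduction of bacterial viability or growth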
[6] = target: Exodeoxyribonuclease V (Escherichia coli (strain K12), UniProt P04993+P07648+P08394); assay: E. coli RecBCD inhibitors, dose response, counter-screen for AddAB inhibitor project, absorbance, V66 E. coli, mutant T4 phage (AID 492957); assay type: functional, cell-based, Escherichia coli str. K-12 substr. MG1655
[7] = Counterscreen for AddAB inhibitors: absorbance-based bacterial cell-based high throughput dose response assay for inhibitors of bacterial viability. [Related pubchem assays (depositor defined):AID435030, AID449728, AID449731, AID488942, AID488955, AID488956]; assay type: functional
[8] = target: T2, High affinity choline transporter 1 (Homo sapiens, UniProt Q9GZV3); assay: CHT inhibitors, dose response, cell-based, 5-point CRC, membrane potential dye (AID 504840); assay type: functional
T2 sequence (Q9GZV3 whole entry): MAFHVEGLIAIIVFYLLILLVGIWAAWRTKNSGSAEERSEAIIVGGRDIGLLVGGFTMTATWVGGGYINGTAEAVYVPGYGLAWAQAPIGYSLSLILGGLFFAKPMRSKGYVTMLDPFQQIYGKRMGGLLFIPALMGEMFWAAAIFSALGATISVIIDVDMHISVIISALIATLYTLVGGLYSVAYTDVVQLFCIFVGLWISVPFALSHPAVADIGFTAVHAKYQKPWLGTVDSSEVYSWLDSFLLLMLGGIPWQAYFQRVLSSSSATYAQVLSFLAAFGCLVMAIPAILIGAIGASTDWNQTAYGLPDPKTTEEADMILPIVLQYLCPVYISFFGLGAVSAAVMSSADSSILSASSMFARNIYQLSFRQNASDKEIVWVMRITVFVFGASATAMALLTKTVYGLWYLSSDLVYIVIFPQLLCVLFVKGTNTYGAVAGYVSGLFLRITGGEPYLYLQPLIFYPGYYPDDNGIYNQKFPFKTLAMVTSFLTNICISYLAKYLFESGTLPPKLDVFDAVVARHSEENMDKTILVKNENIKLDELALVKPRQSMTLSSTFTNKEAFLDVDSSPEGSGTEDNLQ

[9] = target: ATP-dependent molecular chaperone HSP82 (Candida albicans (strain WO-1) (Yeast), UniProt C4YTQ8); assay: loss of DOC-induced GRE-beta-galactosidase reporter signal, dose response, Hsp90 inhibitor project, S. cerevisiae, luminescence (AID 2400); assay type: functional, cell-based;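 further: beta-galactosidase luminescence from glucocorticoid response element reporter as proxy for Hsp90 function; inhibitor potency where signal loss means Hsp90 inhibition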
Sequence of ATP-dependent molecular chaperone HSP82 (C4YTQ8 whole entry): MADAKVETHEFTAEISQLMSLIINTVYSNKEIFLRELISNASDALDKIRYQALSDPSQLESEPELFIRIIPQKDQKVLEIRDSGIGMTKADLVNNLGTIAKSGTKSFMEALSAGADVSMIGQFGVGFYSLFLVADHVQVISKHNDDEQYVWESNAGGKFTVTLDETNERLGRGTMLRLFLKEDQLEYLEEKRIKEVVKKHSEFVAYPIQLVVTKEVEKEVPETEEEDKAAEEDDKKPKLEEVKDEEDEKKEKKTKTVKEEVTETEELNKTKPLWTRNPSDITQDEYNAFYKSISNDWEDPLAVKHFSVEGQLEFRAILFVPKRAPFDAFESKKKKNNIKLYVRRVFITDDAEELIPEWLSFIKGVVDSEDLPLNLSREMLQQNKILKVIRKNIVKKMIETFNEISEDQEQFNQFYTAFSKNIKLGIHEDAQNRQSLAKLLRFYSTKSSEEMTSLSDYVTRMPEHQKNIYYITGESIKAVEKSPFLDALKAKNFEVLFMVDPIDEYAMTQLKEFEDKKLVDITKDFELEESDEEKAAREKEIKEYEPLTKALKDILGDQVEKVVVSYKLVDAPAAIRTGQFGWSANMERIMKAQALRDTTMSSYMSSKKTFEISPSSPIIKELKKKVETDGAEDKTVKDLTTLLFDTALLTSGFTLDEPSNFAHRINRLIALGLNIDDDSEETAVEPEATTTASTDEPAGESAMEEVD

[10] = NIH-3T3 fibroblast cytotoxicity, dose response, cytotoxicity control for antifungal single agent project, cell-based, Alamar Blue, dry powder (AID 602188); assay type: functional
[11] = inhibitors of intracellular T. cruzi replication, confirmation, NIH3T3 host cells, beta-gal luminescence (AID 2044); assay type: functional, cell-based;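 further: intracellular parasites grown in NIH/3T3 mouse fibroblasts as host cells; luminescent beta-galactosidase reporter signal from transgenic T. cruzi replicating inside host cells; inhibitors lower the luminescence signal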
[12] = cytotoxicity toward NIH3T3 fibroblasts, dose response, counter-screen, cell-based, ATP luminescence, mouse fibroblasts (AID 2010); assay type: functional;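 further: cells exposed to compound for about 90 hours before reading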
[13] = target: Intestinal-type alkaline phosphatase (Mus musculus, UniProt P24822); assay: PubChem AID 488785; assay type: functional
Sequence of Intestinal-type alkaline phosphatase (Mus musculus, UniProt P24822) (P24822 whole entry): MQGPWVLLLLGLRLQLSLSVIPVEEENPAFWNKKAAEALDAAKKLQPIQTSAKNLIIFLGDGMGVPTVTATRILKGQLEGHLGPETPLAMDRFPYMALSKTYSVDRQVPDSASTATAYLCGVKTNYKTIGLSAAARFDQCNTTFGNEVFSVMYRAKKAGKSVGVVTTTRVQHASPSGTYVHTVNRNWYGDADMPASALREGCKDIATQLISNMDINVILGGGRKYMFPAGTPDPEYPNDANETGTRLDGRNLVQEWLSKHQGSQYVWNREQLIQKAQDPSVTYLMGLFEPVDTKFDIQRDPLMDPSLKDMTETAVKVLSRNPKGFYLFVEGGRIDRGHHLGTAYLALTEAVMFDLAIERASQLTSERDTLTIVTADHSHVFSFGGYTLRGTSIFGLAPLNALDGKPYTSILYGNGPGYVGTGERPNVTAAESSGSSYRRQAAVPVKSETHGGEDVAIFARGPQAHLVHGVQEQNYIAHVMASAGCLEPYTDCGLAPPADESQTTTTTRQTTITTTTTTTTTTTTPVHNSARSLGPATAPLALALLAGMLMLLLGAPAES

[14] = target: Alkaline phosphatase, tissue-nonspecific isozyme (Homo sapiens, UniProt P05186); assay: TNAP enzyme inhibition by screening hits, dose response, selectivity assay for mouse IAP inhibitor project, biochemical, human TNAP, uHTS hits (AID 488906); assay type: functional
Sequence of Alkaline phosphatase, tissue-nonspecific isozyme (P05186 whole entry): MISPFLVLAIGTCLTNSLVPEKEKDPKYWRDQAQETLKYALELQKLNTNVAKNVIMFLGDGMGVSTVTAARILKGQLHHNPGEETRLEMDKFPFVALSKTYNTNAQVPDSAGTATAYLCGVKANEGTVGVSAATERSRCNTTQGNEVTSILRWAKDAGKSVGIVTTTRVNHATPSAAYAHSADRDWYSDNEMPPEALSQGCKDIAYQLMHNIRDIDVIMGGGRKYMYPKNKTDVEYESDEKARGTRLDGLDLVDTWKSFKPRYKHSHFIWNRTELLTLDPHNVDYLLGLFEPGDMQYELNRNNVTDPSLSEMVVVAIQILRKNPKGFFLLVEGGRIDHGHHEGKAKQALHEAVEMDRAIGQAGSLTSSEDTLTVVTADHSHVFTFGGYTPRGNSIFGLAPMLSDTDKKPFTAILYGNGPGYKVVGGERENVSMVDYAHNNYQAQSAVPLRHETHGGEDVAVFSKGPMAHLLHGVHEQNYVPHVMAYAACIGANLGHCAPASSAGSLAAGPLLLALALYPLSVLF

[15] = target: Intestinal-type alkaline phosphatase (Homo sapiens, UniProt P09923); assay: inhibition of human intestinal alkaline phosphatase – biochemical, dose response (AID 488876); assay type: functional
Sequence of Intestinal-type alkaline phosphatase (Homo sapiens, UniProt P09923) (P09923 whole entry): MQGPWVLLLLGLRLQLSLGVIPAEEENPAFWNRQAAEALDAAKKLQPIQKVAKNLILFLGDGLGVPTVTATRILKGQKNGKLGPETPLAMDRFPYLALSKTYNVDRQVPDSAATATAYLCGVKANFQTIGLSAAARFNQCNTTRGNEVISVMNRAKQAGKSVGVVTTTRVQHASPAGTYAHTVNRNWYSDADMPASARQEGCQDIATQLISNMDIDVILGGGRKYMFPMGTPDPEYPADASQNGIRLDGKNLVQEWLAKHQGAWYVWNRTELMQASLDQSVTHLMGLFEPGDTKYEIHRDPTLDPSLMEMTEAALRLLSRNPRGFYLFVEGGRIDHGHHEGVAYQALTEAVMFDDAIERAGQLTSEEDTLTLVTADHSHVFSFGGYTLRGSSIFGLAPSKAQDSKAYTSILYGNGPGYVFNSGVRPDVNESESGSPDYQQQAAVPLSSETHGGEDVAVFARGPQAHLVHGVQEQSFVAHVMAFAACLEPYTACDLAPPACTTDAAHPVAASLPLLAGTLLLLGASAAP

[16] = target: Glyceraldehyde-3-phosphate dehydrogenase (Homo sapiens, UniProt P04406)
Sequence of Glyceraldehyde-3-phosphate dehydrogenase (P04406 whole entry): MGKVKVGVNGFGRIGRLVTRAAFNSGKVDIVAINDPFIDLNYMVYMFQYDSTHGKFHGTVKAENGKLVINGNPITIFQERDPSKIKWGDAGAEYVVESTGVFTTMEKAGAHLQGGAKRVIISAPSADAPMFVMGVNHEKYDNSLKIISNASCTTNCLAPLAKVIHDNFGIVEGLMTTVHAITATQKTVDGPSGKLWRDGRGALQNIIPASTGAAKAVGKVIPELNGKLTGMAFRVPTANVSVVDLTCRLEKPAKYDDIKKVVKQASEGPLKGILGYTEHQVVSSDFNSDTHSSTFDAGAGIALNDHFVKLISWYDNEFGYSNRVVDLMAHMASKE

[17] = target: T3, Bcl-2-related protein A1 (Mus musculus, UniProt Q07440); assay: Bfl-1 inhibitors blocking BH3 peptide binding, confirmation, biochemical, TR-FRET, mouse Bfl-1 (AID 621);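 further: TR-FRET binding of GST-Bfl-1 to FITC-labelled Bid peptide via terbium antibody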
T3 sequence (Q07440 whole entry): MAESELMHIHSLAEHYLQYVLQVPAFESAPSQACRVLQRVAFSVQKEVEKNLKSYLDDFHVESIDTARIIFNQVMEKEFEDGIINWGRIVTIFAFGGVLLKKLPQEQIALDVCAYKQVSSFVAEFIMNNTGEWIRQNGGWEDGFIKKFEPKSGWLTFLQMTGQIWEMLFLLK

[18] = target: T3, Bcl-2-related protein A1; assay: Bfl-1 binding inhibitors, SAR follow-up, biochemical, fluorescence polarization (AID 1070)
[19] = target: T4, Nucleotide-binding oligomerization domain-containing protein 1 (Homo sapiens, UniProt Q9Y239); assay: SAR analysis of compounds that inhibit NOD1 - Set 3. [Related pubchem assays (depositor defined):AID1566, AID1575, AID1578, AID1849, AID1852, AID2333, AID2335, AID2466]; assay type: functional
T4 sequence (Q9Y239 whole entry): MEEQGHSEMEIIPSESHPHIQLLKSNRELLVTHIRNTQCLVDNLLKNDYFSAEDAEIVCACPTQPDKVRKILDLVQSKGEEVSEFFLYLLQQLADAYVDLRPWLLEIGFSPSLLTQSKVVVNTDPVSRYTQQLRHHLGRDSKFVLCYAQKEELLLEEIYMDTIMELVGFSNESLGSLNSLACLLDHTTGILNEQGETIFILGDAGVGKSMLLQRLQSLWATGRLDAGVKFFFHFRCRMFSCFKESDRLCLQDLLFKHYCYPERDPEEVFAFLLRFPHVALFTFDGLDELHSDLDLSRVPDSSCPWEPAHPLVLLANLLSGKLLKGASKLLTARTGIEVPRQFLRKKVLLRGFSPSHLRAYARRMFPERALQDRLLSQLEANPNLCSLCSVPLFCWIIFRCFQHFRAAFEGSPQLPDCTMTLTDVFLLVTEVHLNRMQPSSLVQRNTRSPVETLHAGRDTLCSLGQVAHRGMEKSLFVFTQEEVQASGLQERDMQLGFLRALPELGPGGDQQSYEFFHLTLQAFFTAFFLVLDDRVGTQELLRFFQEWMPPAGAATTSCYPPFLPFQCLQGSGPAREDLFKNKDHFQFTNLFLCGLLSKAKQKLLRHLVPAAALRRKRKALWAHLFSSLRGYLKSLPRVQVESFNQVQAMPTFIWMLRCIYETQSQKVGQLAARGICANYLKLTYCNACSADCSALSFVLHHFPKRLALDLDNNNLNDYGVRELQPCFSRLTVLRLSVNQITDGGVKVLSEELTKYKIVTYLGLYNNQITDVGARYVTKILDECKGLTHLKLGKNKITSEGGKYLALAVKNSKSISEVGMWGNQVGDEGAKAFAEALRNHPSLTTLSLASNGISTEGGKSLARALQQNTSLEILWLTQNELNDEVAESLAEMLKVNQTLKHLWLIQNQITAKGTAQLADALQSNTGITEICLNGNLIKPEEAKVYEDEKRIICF

[20] = target: Tumor necrosis factor (Homo sapiens, UniProt P01375); assay: TNFa-triggered NF-kB activation inhibitors, SAR follow-up, cell-based, set 3 (AID 2801); assay type: functional
Sequence of Tumor necrosis factor (P01375 whole entry): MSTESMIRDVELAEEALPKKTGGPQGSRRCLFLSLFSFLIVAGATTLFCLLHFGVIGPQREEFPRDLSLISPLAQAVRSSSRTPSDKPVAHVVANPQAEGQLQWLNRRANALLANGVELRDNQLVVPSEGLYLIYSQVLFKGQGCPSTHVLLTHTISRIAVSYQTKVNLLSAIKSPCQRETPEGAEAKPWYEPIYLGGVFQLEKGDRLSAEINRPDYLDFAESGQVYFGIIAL

[21] = test system: HEK293; assay: SAR analysis of compounds that are cytotoxic to HEK293 - Set 3. [Related pubchem assays (depositor defined):AID1575, AID1578, AID1848, AID1849, AID2001, AID2333, AID2334, AID2335, AID2337, AID2469]; assay type: functional, cell-based; settings: Homo sapiens
[22] = target: Nucleotide-binding oligomerization domain-containing protein 2 (Homo sapiens, UniProt Q9HC29); assay: NOD2 signaling inhibitors, analog potency, SAR follow-up, cell-based, set 3 (AID 2799); assay type: functional
Sequence of Nucleotide-binding oligomerization domain-containing protein 2 (Q9HC29 whole entry, the tested form may be a part): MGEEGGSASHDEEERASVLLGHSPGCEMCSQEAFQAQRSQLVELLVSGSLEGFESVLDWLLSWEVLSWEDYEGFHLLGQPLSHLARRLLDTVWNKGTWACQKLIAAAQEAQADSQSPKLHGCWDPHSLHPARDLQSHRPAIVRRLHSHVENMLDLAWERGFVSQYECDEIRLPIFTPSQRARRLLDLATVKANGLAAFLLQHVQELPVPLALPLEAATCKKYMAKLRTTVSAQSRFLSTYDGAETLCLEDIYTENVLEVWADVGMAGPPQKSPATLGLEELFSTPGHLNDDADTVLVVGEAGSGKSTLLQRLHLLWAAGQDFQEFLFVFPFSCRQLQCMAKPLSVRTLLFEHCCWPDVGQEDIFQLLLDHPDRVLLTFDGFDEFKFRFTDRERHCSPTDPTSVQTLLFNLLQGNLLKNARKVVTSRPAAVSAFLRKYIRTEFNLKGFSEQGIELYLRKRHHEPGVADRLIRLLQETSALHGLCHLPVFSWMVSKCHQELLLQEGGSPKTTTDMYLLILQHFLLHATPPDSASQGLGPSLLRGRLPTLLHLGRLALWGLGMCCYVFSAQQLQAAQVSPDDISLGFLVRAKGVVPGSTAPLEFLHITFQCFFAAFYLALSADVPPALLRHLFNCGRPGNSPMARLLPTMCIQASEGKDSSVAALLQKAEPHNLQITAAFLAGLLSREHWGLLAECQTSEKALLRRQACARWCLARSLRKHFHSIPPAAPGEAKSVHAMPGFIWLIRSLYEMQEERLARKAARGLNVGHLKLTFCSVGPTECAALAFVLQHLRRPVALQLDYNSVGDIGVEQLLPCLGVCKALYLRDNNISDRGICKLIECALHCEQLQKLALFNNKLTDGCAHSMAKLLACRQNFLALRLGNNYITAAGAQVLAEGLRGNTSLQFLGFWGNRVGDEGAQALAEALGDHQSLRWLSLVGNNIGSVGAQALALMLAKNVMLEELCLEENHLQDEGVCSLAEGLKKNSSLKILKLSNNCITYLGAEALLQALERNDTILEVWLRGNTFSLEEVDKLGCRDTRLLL

## Cc1ccc(-c2nc3c(Cl)cc(Cl)cc3c(=O)n2O)cc1
[1]
  EC50: 31 µM (inconclusive)
[2]
  EC50: 2.19 µM (active)
[3]
  EC50: 0.891 µM (active)
[4]
  EC50: > 180 µM (inactive)
[5]
  EC50: 2.15 µM (active)
[6]
  IC50: > 119 µM (inactive)
[7]
  IC50: > 119 µM (inactive)
[8]
  IC50: 15.1 µM (active)
[9]
  EC50: 3.24 µM (active)
[10]
  AC50: 16.2 µM (active)

## COc1cc(NC(S)=NCCC(c2ccccc2)c2ccccc2)cc(OC)c1
[11]
  EC50: 2.02 µM (active)
[12]
  EC50: > 60 µM (not active)
[13]
  IC50: 13.7 µM (active)
[14]
  IC50: 12.2 µM (active)
[15]
  IC50: > 100 µM (inactive)

## Nc1cc(-c2ccccc2)nn1S(=O)(=O)c1c(F)c(F)c(F)c(F)c1F
[16]
  IC50: > 100 µM (not active)
[17]
  IC50: 5.83 µM (active)
[18]
  IC50: > 100 µM (not active)
[19]
  IC50: > 20 µM (inactive)
[20]
  IC50: > 20 µM (inactive)
[21]
  IC50: > 20 µM (inactive)
[22]
  IC50: > 20 µM (inactive)
